From BigSolDB 2.1

O=S(=O)(c1ccccc1)c1ccc(Cl)cc1
solubility (mole fraction)
Conditions | 278.15 K | 283.15 K | 288.15 K | 293.15 K | 298.15 K | 303.15 K | 308.15 K | 313.15 K | 318.15 K | 323.15 K
in ethanol | 0.00091 | 0.00105 | 0.00121 | 0.00142 | 0.00166 | 0.00189 | 0.00221 | 0.00261 | 0.00301 | 0.00358
in isopropanol | 0.00198 | 0.00236 | 0.00283 | 0.00338 | 0.00395 | 0.00468 | 0.00547 | 0.00629 | 0.00722 | 0.00838
in methanol | 0.000276 | 0.000332 | 0.000401 | 0.00049 | 0.000572 | 0.000668 | 0.000781 | 0.0009 | 0.00105 | 0.00125
in n-propanol | 0.00351 | 0.00411 | 0.00479 | 0.00555 | 0.00645 | 0.00754 | 0.00885 | 0.0102 | 0.0116 | 0.0137
in water | 2.88e-06 | 3.77e-06 | 4.7e-06 | 5.95e-06 | 7.38e-06 | 9.03e-06 | 1.1e-05 | 1.34e-05 | 1.61e-05 | 1.94e-05
